# Measured values reported in patent US7022711B2, “2-(4-Pyridyl)amino-6-dialkoxyphenyl-pyrido[2,3-d]pyrimidin-7-ones” (Warner-Lambert Company, priority 2000, dated 2006).
# Legend:
# Type in all cases: biochemical
# VEGFR-2 = molecular target: T1, VEGFR-2 (Homo sapiens, UniProt P35968); test: Kinase inhibition assay (DELFIA), VEGF-2; conditions: 40 μM ATP, kinase domain 20 nM
# T1 construct: The kinase domains from FGFR-1, VEGFR-2, Lck, and PDGF were purified from baculoviral vectors expression systems; made in house
# Description: DELFIA plates (EG&G Wallac, Gaithersburg, Md.) were coated overnight with Poly Glu Tyr (4:1) (Sigma, St. Louis, Mo.) at room temperature, washed (DELFIA wash reagent, EG&G Wallac), and spotted with 1 μL inhibitor dilution or DMSO carrier control per well. In some cases, kinase was autophosphorylated prior to analysis by incubating 45 minutes at 4° C. in the presence of 4 mM ATP and 25 mM MgCl2. A typical 100 μL kinase assay reaction contained 20 mM Tris (pH 7.5), 20 mM MgCl2, 50 mM NaCl, 5 mM DTT, and protease inhibitors (Mini EDTA-free protease inhibitor cocktail tablets, Boehringer Mannheim, Indianapolis, Ind.), 40 μM ATP, and an appropriate concentration of inhibitor. The reaction was allowed to continue for 30 minutes at room temperature. Plates were washed, blocked 30 minutes at room temperature (0.5% bovine serum albumin in DELFIA Assay Buffer, EG&G Wallac), and washed. One hundred microliter europium-conjugated antiphosphotyrosine antibody in DELFIA assay buffer was added to each well. Plates were incubated for 1 hour and decanted. […] Compounds were tested from 10 through 0.0001 μM. c-Src was (Upstate Biotechnology, Lake Placid, N.Y.) was used at 3 units per reaction. The kinase domains from FGFR-1, VEGFR-2, Lck, and PDGF were purified from baculoviral vectors expression systems and were used in the assays at 20 nM.
# FGFR-1 = molecular target: T2, FGFR-1 (Homo sapiens, UniProt P11362); test: Kinase inhibition assay (DELFIA), FGFr; conditions: 40 μM ATP, kinase domain 20 nM
# T2 construct: The kinase domains from FGFR-1, VEGFR-2, Lck, and PDGF were purified from baculoviral vectors expression systems; made in house
# Description: (§1) The inhibition activity of the compounds in Examples 8, 9, 10, 11, and 12 and Reference Compounds A and B were evaluated using the Dissociated Enhanced Lanthanide Fluoroimmuno Assay (DELFIA) (Frank Loganzo and Carolyn Hardy. A sensitive, time-resolved fluorometric assay for the detection of inhibitors of phosphotyrosine kinases. American Biotechnology Laboratory, December 1998). DELFIA plates (EG&G Wallac, Gaithersburg, Md.) were coated overnight with Poly Glu Tyr (4:1) (Sigma, St. Louis, Mo.) at room temperature, washed (DELFIA wash reagent, EG&G Wallac), and spotted with 1 μL inhibitor dilution or DMSO carrier control per well. In some cases, kinase was autophosphorylated prior to analysis by incubating 45 minutes at 4° C. in the presence of 4 mM ATP and 25 mM MgCl2. A typical 100 μL kinase assay reaction contained 20 mM Tris (pH 7.5), 20 mM MgCl2, 50 mM NaCl, 5 mM DTT, and protease inhibitors (Mini EDTA-free protease inhibitor cocktail tablets, Boehringer Mannheim, Indianapolis, Ind.), 40 μM ATP, and an appropriate concentration of inhibitor. The reaction was allowed to continue for 30 minutes at room temperature. Plates were washed, blocked 30 minutes at room temperature (0.5% bovine serum albumin in DELFIA Assay Buffer, EG&G Wallac), and washed. One hundred microliter europium-conjugated antiphosphotyrosine antibody in DELFIA assay buffer was added to each well. Plates were incubated for 1 hour and decanted. One hundred microliter DELFIA enhancement solution (EG&G Wallac) was added and time-resolved fluorescence of the reactions determined using a VICTOR2 1420 multilable counter (EG&G Wallac). Compounds were tested from 10 through 0.0001 μM. c-Src was (Upstate Biotechnology, Lake Placid, N.Y.) was used at 3 units per reaction. The kinase domains from FGFR-1, VEGFR-2, Lck, and PDGF were purified from baculoviral vectors expression systems and were used in the assays at 20 nM.
# c-Src = molecular target: T3, c-Src (Homo sapiens, UniProt P12931); test: Kinase inhibition assay (DELFIA), c-Src; conditions: 40 μM ATP, c-Src 3 units per reaction
# T3 construct: purchased Upstate Biotechnology, Lake Placid, N.Y
# Description: as §1
# T1 sequence (P35968 834-1162 limits assumed, species assumed): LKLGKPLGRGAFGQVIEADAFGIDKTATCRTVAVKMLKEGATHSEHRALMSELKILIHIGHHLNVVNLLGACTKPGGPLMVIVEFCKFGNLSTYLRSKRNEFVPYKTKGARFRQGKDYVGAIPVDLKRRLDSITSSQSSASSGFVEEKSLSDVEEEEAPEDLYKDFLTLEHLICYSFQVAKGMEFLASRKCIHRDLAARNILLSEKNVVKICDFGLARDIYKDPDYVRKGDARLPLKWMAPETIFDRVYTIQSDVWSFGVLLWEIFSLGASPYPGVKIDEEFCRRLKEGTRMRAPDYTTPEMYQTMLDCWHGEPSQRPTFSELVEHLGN
# T2 sequence (P11362 478-767 limits assumed, species assumed): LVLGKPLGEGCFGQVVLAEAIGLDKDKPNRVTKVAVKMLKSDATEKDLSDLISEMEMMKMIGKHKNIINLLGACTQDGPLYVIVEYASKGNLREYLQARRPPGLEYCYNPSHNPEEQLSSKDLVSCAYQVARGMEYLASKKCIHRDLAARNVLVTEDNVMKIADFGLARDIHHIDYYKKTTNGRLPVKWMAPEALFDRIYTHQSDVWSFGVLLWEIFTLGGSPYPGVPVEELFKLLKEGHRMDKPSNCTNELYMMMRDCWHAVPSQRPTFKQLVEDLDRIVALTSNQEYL
substance,measurement,setting,value
"6-(3,5-Dimethoxy-phenyl)-8-ethyl-2-(pyridin-4-ylamino)-8H-pyrido[2,3-d]pyrimidin-7-one [Example 8]",IC50,VEGFR-2,0.02 µM
same,IC50,FGFR-1,0.009 µM
same,IC50,c-Src,36.5 µM
